From patent publication US10906905B2, “Five-membered heteroaryl ring bridged ring derivative, preparation method therefor and medical use thereof” (Jiangsu Hengrui Medicine Co., Ltd., priority 2016, dated 2021) come the findings set out here.

Usually IC50 stands for the concentration needed to halve the response being measured. In general, AUC refers to concentration integrated over time. In general, MRT refers to a mean duration of stay, worked out from the concentration-time curve.

The target in one data set is TGFβRI kinase ALK5 (Homo sapiens (Human), UniProt P36897). Nature of the data set: Inhibition of TGFβRI kinase ALK5 activity (TGFβRI kinase assay kit, ADP-Glo). In kind it is biochemical. To be noted: ATP 50 μM; read-out: IC50 of inhibition effect on TGFβRI kinase ALK5 activity. As to the method:
The inhibition effect of TGFβRI kinase activity in vitro was determined by the following method.
The inhibition effect of the compounds of the present invention on TGFβRI kinase ALK5 activity was determined by the following experimental method:
(§1) TGFβRI kinase assay kit (V4093, Promega) was used to assay enzyme activity. 2 μl of enzyme solution (the final concentration of enzyme in the reaction system was 2 ng/μL) formulated with reaction buffer (40 mM Tris pH 7.5, 20 mM MgCl2, 0.1 mg/ml BSA), 1 μl of a 3-fold gradient dilution of the compounds dissolved in 5% DMSO, and 2 μl of a mixed solution of ATP and TGFβRI substrate peptide (the final concentration of ATP was 50 μM, and the final concentration of substrate was 0.2 μg/μL) were added successively to a 384-well plate (4514, Corning). After reaction at 27° C. for 2.5 hours, 5 μl of ADP-Glo solution in the kit was added to each well, then the plate was placed at 27° C. for 40 minutes. 10 μl of kinase assay reagent was then added to each well, then the plate was placed at 27° C. for 30 minutes. The chemiluminescence signal values were measured with a Victor 3 (PerkinElmer) multi-function microplate reader. The IC50 values of the compounds for enzyme inhibition were calculated using Graphpad prism software based on each concentration of the compound and the corresponding signal value thereof.
For orientation: In ADP-Glo the light output rises with the ADP produced.

The test system of data set [1] is Smad signaling pathway of TGFβRI. Nature of the data set: Inhibition of Smad signaling pathway of TGFβRI (3TP-lux luciferase reporter in HepG2 cell). In kind it is cell-based. The note with it: Homo sapiens; HepG2 cell, 3TP-lux plasmid, 18 hours; read-out: IC50 on the inhibition of Smad signaling pathway of TGFβRI. The protocol:
The inhibition effect of the compounds of the present invention on Smad signaling pathway of TGFβRI was determined by the following in vitro test.
The inhibition effect of the compounds of the present invention on Smad signaling pathway of TGFβRI was determined by the following experimental method:
The seeding density is 2.5×10^4 cells/well. The cells were incubated overnight at 37° C., 5% CO2. Each well was replaced with fresh EMEM medium containing 10% FBS. […] The cells were further incubated for 24 hours at 37° C., 5% CO2. Each well was replaced with 90 μL of EMEM medium containing 0.5% FBS, then the cells were starved for 6 hours. The compounds were formulated as a 20 mM stock solution, which was diluted in gradient to a 400× concentration with 100% DMSO, and further 40-fold diluted with EMEM containing 0.5% FBS. The cell culture plate was taken out, then 10 μl of diluted compound or control (0.25% DMSO) was added to each well respectively. The plate was shaken gently, then incubated for 18 hours in an incubator at 37° C., 5% CO2. Finally, 100 μl of detection reagent ONE-Glo™ Luciferase Assay (E6110, Promega) was added to each well, and the plate was placed in dark at room temperature for 10 minutes. The chemiluminescence signal values were measured with a Victor 3.0 (PerkinElmer). The IC50 values of the compounds were calculated using Graphpad Prism software based on each concentration of the compound and the corresponding signal value thereof.

The target in another data set is p38α kinase (Homo sapiens (Human), UniProt Q16539). Nature of the data set: Inhibition of p38α kinase activity (p38α kinase assay kit, ADP-Glo). In kind it is biochemical. To be noted: ATP 50 μM; read-out: IC50 of inhibition effect on p38α kinase activity. The protocol: The inhibition of p38α kinase activity in vitro was determined by the following method.
The inhibition effect of the compounds of the present invention on p38a kinase activity was determined by the following experimental method:
as §1, with “p38α kinase” for “TGFβRI kinase”, “kit (V9591,” for “kit (V4093,”, “was 0.5” for “was 2”, “and p38” for “and TGFβRI”, “compounds on” for “compounds for”

For the next data set, the system named is NIH3T3 cell. Nature of the data set: Inhibition of NIH3T3 cell proliferation (CellTiter-Glo). In kind it is cell-based. The note with it: Mus musculus, 72 hours, 0.5% FBS. As to the method: The inhibition effect of the compounds of the present invention on NIH3T3 cell proliferation was determined by the following in vitro test.
The inhibition effect of the compounds of the present invention on NIH3T3 cell proliferation was determined by the following experimental method:
On a 96-well white plate with transparent bottom (3903, Corning), 100 μL of NIH3T3 cell (GNM6, Cell Bank of Typical Culture Collection Committee of Chinese Academy of Sciences) was seeded in a DMEM medium containing 10% FBS in each well. The seeding density is 2000 cells/well. The cells were incubated overnight at 37° C., 5% CO2. After overnight incubation, each well was replaced with 90 μL of DMEM medium containing 0.5% FBS. 10 μl of a 3-fold gradient dilution of the compounds with DMEM medium containing 0.5% FBS was then added, and the plate was incubated for 72 hours in a cell incubator at 37° C., 5% CO2. Finally, 50 μL of CellTiter-Glo (G7573, Promega) was added to each well. After incubation for 10 minutes at room temperature, the chemiluminescence signal values were measured with a Victor 3 microplate reader (PerkinElmer). The IC50 values of the compounds were calculated using Graphpad Prism software based on each concentration of the compound and the corresponding signal value thereof.
In general terms: ATP-based viability assays read luminescence as a measure of living cells.

Data set [2] is described as follows: Pharmacokinetics assay in rats after intragastrical administration. To be noted: both sexes, Sprague-Dawley, rat, plasma, po, SD rats, 2 mg/kg. In kind it is in vivo. As to the method:
Rats were used as test animals. The drug concentration in plasma at different time points was determined by LC/MS/MS method after intragastrical administration of the compounds of Examples 1-1, 1-2, 2-1, 3-1, the compound with retention time of 6.631 minutes among Examples 9-1 and 9-2, and the compounds of Examples 33 and 39-1 to rats. The pharmacokinetic behavior of the compounds of the present invention was studied and evaluated in rats.
Compounds of Examples 1-1, 1-2, 2-1, 3-1, compound with retention time of 6.631 minutes among Examples 9-1 and 9-2, and compounds of Examples 33 and 39-1.
Twenty-eight healthy adult Sprague-Dawley (SD) rats (half male and half female) were purchased from SINO-BRITISH SIPPR/BK LAB. ANIMAL LTD., CO, with Certificate No.: SCXK (Shanghai) 2008-0016, and equally divided into 7 groups (4 rats per group).
A certain amount of the test compound was weighed, and added with 5% by volume of DMSO, 5% by volume of Tween 80, and 90% by volume of physiological saline were added to prepare a 0.2 mg/mL colorless, clear and transparent solution.
After an overnight fast, SD rats were administered intragastrically the test compounds at an administration dosage of 2.0 mg/kg and an administration volume of 10.0 mL/kg.
The rats were intragastrically administered the compounds of Examples 1-1, 1-2, 2-1, 3-1, the compound with retention time of 6.631 minutes among Examples 9-1 and 9-2, and the compounds of Examples 33 and 39-1.0.2 mL of blood was taken from the orbital sinus before administration and at 0.5, 1.0, 2.0, 4.0, 6.0, 8.0, 11.0 and 24.0 hours after administration. The samples were stored in heparinized tubes, and centrifuged for 10 minutes at 4° C. at 3,500 rpm to separate the blood plasma. The plasma samples were stored at −20° C. The rats were fed 2 hours after administration.
The content of the test compounds in the plasma of rats after intragastrical administration of the test compounds at different concentrations was determined: 25 μL of rat plasma at each time after administration was taken, added with 50 μL (100 ng/mL) of the internal standard solution of camptothecin and 175 μL of acetonitrile, shaken vertically for 5 minutes, and centrifuged for 10 minutes (4000 rpm). 3.0 μL of the supernatant was taken from the plasma samples for LC/MS/MS analysis.

The target of data set [3] is recombinant human VEGFR2 enzyme (Homo sapiens (Human), UniProt P35968). Nature of the data set: Inhibition of VEGFR2 kinase activity (Z'-LYTE Kinase Assay Kit). In kind it is biochemical. The note with it: ATP 50 μM; read-out: IC50 of inhibition effect on VEGFR2 kinase activity. The protocol:
The inhibition effect of VEGFR2 kinase activity in vitro was determined by the following method.
The inhibition effect of the compounds of the present invention on VEGFR2 kinase activity was determined by the following experimental method:
After reaction at 25° C. for 2 hours, 5 μL of detection reagent was added to each well. […] The IC50 values of the compounds for enzyme inhibition were calculated using Graphpad prism software based on each concentration of the compound and the corresponding signal value thereof.

Sequence of TGFβRI kinase ALK5 (P36897 34-503): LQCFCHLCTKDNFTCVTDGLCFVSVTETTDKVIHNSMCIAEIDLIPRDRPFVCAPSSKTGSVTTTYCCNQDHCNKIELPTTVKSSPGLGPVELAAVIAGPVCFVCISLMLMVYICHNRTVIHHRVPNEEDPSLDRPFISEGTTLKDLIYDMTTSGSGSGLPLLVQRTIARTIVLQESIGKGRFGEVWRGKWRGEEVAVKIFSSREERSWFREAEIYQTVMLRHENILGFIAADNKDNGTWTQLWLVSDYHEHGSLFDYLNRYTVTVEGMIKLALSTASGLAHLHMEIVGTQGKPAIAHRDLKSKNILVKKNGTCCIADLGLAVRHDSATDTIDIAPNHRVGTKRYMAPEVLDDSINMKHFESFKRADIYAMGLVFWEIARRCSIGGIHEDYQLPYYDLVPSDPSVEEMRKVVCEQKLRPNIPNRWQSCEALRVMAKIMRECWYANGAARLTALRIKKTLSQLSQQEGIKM
Sequence of recombinant human VEGFR2 enzyme (P35968 20-1356): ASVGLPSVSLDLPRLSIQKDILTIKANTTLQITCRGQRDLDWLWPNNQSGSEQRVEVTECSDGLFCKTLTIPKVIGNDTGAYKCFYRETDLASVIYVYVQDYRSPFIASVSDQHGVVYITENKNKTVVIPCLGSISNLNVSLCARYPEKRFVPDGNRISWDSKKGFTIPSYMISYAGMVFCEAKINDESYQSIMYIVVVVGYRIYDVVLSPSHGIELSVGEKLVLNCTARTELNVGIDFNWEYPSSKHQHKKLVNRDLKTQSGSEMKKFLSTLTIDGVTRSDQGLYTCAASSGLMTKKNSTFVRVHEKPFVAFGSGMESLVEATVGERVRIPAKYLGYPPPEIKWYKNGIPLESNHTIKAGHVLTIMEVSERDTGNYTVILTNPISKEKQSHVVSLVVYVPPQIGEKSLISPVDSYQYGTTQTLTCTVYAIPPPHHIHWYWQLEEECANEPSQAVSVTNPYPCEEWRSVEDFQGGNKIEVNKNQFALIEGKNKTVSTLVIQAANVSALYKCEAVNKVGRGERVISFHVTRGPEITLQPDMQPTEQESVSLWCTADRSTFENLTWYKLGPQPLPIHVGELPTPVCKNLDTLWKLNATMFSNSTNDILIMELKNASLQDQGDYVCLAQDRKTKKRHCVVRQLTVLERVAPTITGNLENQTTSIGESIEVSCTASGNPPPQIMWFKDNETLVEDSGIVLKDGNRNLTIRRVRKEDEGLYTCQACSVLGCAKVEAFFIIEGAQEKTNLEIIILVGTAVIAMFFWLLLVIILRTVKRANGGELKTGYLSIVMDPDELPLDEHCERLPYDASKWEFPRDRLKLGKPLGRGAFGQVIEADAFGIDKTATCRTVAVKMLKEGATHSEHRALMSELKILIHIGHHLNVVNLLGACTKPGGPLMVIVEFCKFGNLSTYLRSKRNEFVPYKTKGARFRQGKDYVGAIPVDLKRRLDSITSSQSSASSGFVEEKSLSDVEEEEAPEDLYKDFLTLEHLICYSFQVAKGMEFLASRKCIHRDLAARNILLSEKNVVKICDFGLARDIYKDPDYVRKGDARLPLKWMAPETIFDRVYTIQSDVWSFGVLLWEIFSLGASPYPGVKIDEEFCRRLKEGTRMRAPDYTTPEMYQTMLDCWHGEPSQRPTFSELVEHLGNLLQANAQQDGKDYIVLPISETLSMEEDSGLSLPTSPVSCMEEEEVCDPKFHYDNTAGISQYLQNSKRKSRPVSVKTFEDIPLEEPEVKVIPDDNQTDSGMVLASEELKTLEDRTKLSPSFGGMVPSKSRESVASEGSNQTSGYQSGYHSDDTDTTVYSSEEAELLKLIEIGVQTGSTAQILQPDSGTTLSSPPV
Sequence of p38α kinase (Q16539 whole entry): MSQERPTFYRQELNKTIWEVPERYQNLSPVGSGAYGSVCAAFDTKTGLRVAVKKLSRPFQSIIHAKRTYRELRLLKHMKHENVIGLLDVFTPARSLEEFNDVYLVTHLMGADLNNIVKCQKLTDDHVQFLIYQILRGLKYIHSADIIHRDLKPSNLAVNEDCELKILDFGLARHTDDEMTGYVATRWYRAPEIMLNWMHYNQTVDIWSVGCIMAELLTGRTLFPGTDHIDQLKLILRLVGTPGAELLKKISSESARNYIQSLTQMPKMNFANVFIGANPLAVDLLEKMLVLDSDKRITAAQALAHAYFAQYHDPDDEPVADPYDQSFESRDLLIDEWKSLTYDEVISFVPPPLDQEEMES

Turning to `Cc1cccc(-c2nc3n(c2-c2ccnc(-c4cnn(C)c4)c2)C2CCC3C2)n1` (stereo not drawn) [Example 12, 3-(2-(1-Methyl-1H-pyrazol-4-yl)pyridin-4-yl)-2-(6-methylpyridin-2-yl)-5,6,7,8-tetrahydro-5,8-methanoimidazo[1,2-a]pyridine], the IC50 was determined as 0.009 µM on TGFβRI kinase ALK5, 0.033 µM in data set [1], 0.454 µM at p38α kinase and 0.013 µM in the data set on NIH3T3 cell.
For the compound `Cc1cccc(-c2nn3c(c2-c2ccnc(-c4ccc(S(C)(=O)=O)cc4)c2)C2CCC3CC2)n1` [Example 33, 2-(6-Methylpyridin-2-yl)-3-(2-(4-(methylsulfonyl)phenyl)pyridin-4-yl)-4,5,6,7-tetrahydro-4,7-ethanopyrazolo[1,5-a]pyridine], the half-maximal inhibitory concentration (IC50) on TGFβRI kinase ALK5 worked out at 0.034 µM; in data set [1], 0.087 µM; on p38α kinase, 0.563 µM. For the same compound, the Vd/F in data set [2] (read-out: Apparent distribution volume Vz/F) was 16.4 ± 10.7 L/kg. Further, the AUC in data set [2] (read-out: Area under curve AUC) amounted to 228 ± 159 ng·h/mL. Besides, the CL/F in data set [2] (read-out: Clearance CLz/F) was 193 ± 95 mL/min/kg. Further, the half-life in data set [2] (read-out: Half-life T1/2 (converted)) was 0.973 ± 0.3 h. The Cmax in data set [2] (read-out: Plasma concentration Cmax) was 178 ± 113 ng/mL. The MRT in data set [2] (read-out: Residence time MRT) is 1.2 ± 0.35 h.
With `Cc1cccc(-c2nc3n(c2-c2ccnc(NCCN4CCOCC4)c2)[C@H]2CC[C@@H]3C2)n1` [Example 16-1, 4-((5S,8R)-2-(6-Methylpyridin-2-yl)-5,6,7,8-tetrahydro-5,8-methanoimidazo[1,2-a]pyridin-3-yl)-N-(2-morpholinoethyl)pyridin-2-amine], the IC50 is 0.077 µM at TGFβRI kinase ALK5 and above 10 µM in data set [3].
`CS(=O)(=O)c1ccc(-c2cc(-c3c(-c4ccc(F)cn4)nc4n3[C@H]3CC[C@@H]4C3)ccn2)cc1` [Example 42-1, (5S,8R)-2-(5-Fluoropyridin-2-yl)-3-(2-(4-(methylsulfonyl)phenyl)pyridin-4-yl)-5,6,7,8-tetrahydro-5,8-methanoimidazo[1,2-a]pyridine]: the results for the IC50 (in data set [1]; on p38α kinase; in data set [3]) were 0.031 µM, 7.78 µM and 9.74 µM, respectively.
For `Cc1cccc(-c2nn3c(c2-c2ccc4nccc(C(N)=O)c4c2)C2CCC3CC2)n1` [Example 36, 6-(2-(6-Methylpyridin-2-yl)-4,5,6,7-tetrahydro-4,7-ethanopyrazolo[1,5-a]pyridin-3-yl)quinoline-4-carboxamide], the IC50 at TGFβRI kinase ALK5 amounted to 0.021 µM; in data set [1] it was 0.018 µM; at p38α kinase, 0.598 µM; in data set [3], 1.01 µM.
On to `Cc1cccc(-c2nc3n(c2-c2ccnc(-c4ccc(C(N)=O)cc4)c2)C2CCC3C2)n1` (stereo not drawn) [Example 4, 4-(4-(2-(6-Methylpyridin-2-yl)-5,6,7,8-tetrahydro-5,8-methanoimidazo[1,2-a]pyridin-3-yl)pyridin-2-yl)benzamide], for which the concentration for half-maximal inhibition (IC50) turned out to be 0.029 µM on TGFβRI kinase ALK5, 0.086 µM in data set [1], 0.638 µM at p38α kinase and 4.05 µM in data set [3].
`Cc1cccc(-c2nc3n(c2-c2ccnc(-c4ccc(S(C)(=O)=O)cc4)c2)[C@@H]2CC[C@H]3C2)n1` [Example 3-2, (5R,8S)-2-(6-Methylpyridin-2-yl)-3-(2-(4-(methylsulfonyl)phenyl)pyridin-4-yl)-5,6,7,8-tetrahydro-5,8-methanoimidazo[1,2-a]pyridine]: the half-inhibitory concentration (IC50) on TGFβRI kinase ALK5 was 0.023 µM; in data set [1], 0.031 µM; at p38α kinase, 0.654 µM; in data set [3] it was 0.928 µM.
